According to US20230144824A1, “1H-PYRAZOLO[4,3-d]PYRIMIDINE COMPOUNDS AS TOLL-LIKE RECEPTOR 7 (TLR7) AGONISTS” (BRISTOL-MYERS SQUIBB COMPANY, priority 2020, published 2023):
pEC50: −log10 of the molar value.

Key:
[1] = target: T1, human TLR7 (Homo sapiens, UniProt Q9NYK1); experiment: Human TLR7 agonist activity assay (HEK-Blue TLR7 SEAP reporter); format: cell-based; conditions: HEK-Blue TLR7 cells, 18 h treatment, average where assay performed multiple times, read-out: hTLR7 Agonism EC50
T1 construct: host or cells: HEK-Blue TLR7 cells (engineered human embryonic kidney cells)
T1 sequence (Q9NYK1 27-1049): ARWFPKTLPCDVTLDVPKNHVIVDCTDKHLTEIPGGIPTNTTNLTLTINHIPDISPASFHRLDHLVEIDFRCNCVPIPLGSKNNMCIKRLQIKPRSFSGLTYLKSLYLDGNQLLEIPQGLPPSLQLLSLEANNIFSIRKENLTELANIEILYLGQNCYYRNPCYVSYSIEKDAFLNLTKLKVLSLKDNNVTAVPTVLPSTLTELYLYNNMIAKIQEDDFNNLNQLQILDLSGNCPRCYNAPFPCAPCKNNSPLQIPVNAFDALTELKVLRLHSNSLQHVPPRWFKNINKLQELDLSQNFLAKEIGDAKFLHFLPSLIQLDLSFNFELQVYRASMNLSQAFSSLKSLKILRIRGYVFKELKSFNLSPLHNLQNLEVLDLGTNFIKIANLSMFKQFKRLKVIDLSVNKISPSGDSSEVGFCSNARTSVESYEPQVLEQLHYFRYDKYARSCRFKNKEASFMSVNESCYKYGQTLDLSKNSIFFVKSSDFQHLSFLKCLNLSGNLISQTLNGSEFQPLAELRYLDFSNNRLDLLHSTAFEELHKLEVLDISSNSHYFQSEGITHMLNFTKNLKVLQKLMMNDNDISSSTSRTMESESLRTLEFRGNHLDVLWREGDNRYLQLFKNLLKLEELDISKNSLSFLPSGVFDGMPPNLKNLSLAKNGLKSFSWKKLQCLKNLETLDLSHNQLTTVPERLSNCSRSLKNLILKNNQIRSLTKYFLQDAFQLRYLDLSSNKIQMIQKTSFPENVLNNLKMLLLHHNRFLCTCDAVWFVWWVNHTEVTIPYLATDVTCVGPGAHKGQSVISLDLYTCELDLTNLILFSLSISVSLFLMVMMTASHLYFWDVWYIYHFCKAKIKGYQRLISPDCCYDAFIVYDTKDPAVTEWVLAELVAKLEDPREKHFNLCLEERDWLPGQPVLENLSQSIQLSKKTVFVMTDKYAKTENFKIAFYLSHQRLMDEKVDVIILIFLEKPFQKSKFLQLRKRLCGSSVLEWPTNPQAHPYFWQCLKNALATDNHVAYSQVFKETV
Outline: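 HEK-Blue TLR7 cells (15,000/well) treated with compound for 18 h at 37 °C, 5% CO2. Secreted SEAP measured with Quanti-Blue, 30 min, OD 620 nm. EC50 taken as concentration giving half-maximal response between baseline and maximum.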

[2] = system: CD69; experiment: Induction of CD69 in human whole blood; format: cell-based; conditions: Homo sapiens, 17 h, 100% set to 1 uM of resiquimod, average where assay performed multiple times, read-out: hWB CD69 EC50
Outline: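 Heparinized human whole blood treated with TLR7 agonist at final 1 uM and incubated 17 h at 37° C. CD69 surface staining alongside CD14 and CD19, then fix/lysis and flow cytometry on iQuePlus. Curves fitted with 1 uM resiquimod set as 100%.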

Row | SMILES | pEC50 [1] | pEC50 [2]
1 | CCCCNc1nc(N)nc2cnn(Cc3ncc(C4CCN(C(=O)CCN(C)C)CC4)cc3OC)c12 [Compound 109, 1-[4-(6-{[5-amino-7-(butylamino)-1H-pyrazolo[4,3-d]pyrimidin-1-yl]methyl}-5-methoxypyridin-3-yl)piperidin-1-yl]-3-(dimethylamino)propan-1-one] | 6.67 | 7.84
2 | CCC[C@@H](CCO)Nc1nc(N)nc2cnn(Cc3ncc(C4CCN(CCO)CC4)cc3OC)c12 [Compound 125, (3S)-3-{[5-amino-1-({5-[1-(2-hydroxyethyl)piperidin-4-yl]-3-methoxypyridin-2-yl}methyl)-1H-pyrazolo[4,3-d]pyrimidin-7-yl]amino}hexan-1-ol] | 7.24 | 7.99
3 | CCCCNc1nc(N)nc2cnn(Cc3ncc(C4=CC(C)(C)NC(C)(C)C4)cc3OC)c12 [Compound 169, N7-butyl-1-({5-methoxy-2′,2′,6′,6′-tetramethyl-1′,2′,3′,6′-tetrahydro-[3,4′-bipyridine]-6-yl}methyl)-1H-pyrazolo[4,3-d]pyrimidine-5,7-diamine] | 6.30 | 6.92
4 | COc1cc(C2CCNCC2)cnc1Cn1ncc2nc(N)nc(NCc3cc(C)on3)c21 [Compound 137, 1-{[3-methoxy-5-(piperidin-4-yl)pyridin-2-yl]methyl}-N7-[(5-methyl-1,2-oxazol-3-yl)methyl]-1H-pyrazolo[4,3-d]pyrimidine-5,7-diamine] | 6.45 | 6.93
5 | CCCCNc1nc(N)nc2c(C)nn(Cc3ncc(C4CCNCC4)cc3OC)c12 [Compound 106, N7-butyl-1-{[3-methoxy-5-(piperidin-4-yl)pyridin-2-yl]methyl}-3-methyl-1H-pyrazolo[4,3-d]pyrimidine-5,7-diamine] | 6.26 | 6.82
6 | CCCCNc1nc(N)nc2cnn(Cc3ncc(C4CCN(C5CCC5)CC4)cc3OC)c12 [Compound 108, N7-butyl-1-{[5-(1-cyclobutylpiperidin-4-yl)-3-methoxypyridin-2-yl]methyl}-1H-pyrazolo[4,3-d]pyrimidine-5,7-diamine] | 7.28 | 8.32
7 | CCC[C@@H](CCO)Nc1nc(N)nc2cnn(Cc3ncc(N4CCN(CC(C)(C)O)CC4)cc3OC)c12 [Compound 172, (3S)-3-{[5-amino-1-({5-[4-(2-hydroxy-2-methylpropyl)piperazin-1-yl]-3-methoxypyridin-2-yl}methyl)-1H-pyrazolo[4,3-d]pyrimidin-7-yl]amino}hexan-1-ol] | 7.70 | 7.97
8 | CCCCNc1nc(N)nc2cnn(Cc3ncc(C4CCN(C(=O)CC(C)(C)O)CC4)cc3OC)c12 [Compound 110, 1-[4-(6-{[5-amino-7-(butylamino)-1H-pyrazolo[4,3-d]pyrimidin-1-yl]methyl}-5-methoxypyridin-3-yl)piperidin-1-yl]-3-hydroxy-3-methylbutan-1-one] | 6.46 | 6.42

Further compounds by rising pEC50 [1], results first:

Row | pEC50 [1] | pEC50 [2] | SMILES
9 | 6.47 | 6.00 | CCCCNc1nc(N)nc2cnn(Cc3cc(F)c(N4CCN(C(=O)CN5CC(O)C5)CC4)cc3OC)c12 [Compound 199, 1-[4-(4-{[5-amino-7-(butylamino)-1H-pyrazolo[4,3-d]pyrimidin-1-yl]methyl}-2-fluoro-5-methoxyphenyl)piperazin-1-yl]-2-(3-hydroxyazetidin-1-yl)ethan-1-one]
10 | 6.66 | 7.45 | CCC[C@@H](CCO)Nc1nc(N)nc2cnn(Cc3nc(C4CCN(C)CC4)ccc3OC)c12 [Compound 191, (3S)-3-[(5-amino-1-{[3-methoxy-6-(1-methylpiperidin-4-yl)pyridin-2-yl]methyl}-1H-pyrazolo[4,3-d]pyrimidin-7-yl)amino]hexan-1-ol]
11 | 7.05 | 8.32 | CCC[C@@H](CCO)Nc1nc(N)nc2cnn(Cc3cnc(C4CCN(CCO)CC4)cc3OC)c12 [Compound 173, (3S)-3-{[5-amino-1-({6-[1-(2-hydroxyethyl)piperidin-4-yl]-4-methoxypyridin-3-yl}methyl)-1H-pyrazolo[4,3-d]pyrimidin-7-yl]amino}hexan-1-ol]
12 | 7.14 | 7.79 | COc1cc(C2CCN(C3CCOCC3)CC2)cnc1Cn1ncc2nc(N)nc(NCc3cc(C)on3)c21 [Compound 141, 1-({3-methoxy-5-[1-(oxan-4-yl)piperidin-4-yl]pyridin-2-yl}methyl)-N7-[(5-methyl-1,2-oxazol-3-yl)methyl]-1H-pyrazolo[4,3-d]pyrimidine-5,7-diamine]
13 | 7.82 | 9.49 | CCC[C@@H](CCO)Nc1nc(N)nc2cnn(Cc3ncc(C4CCN(CC(C)(C)O)CC4)cc3OC)c12 [Compound 151, (3S)-3-{[5-amino-1-({5-[1-(2-hydroxy-2-methylpropyl)piperidin-4-yl]-3-methoxypyridin-2-yl}methyl)-1H-pyrazolo[4,3-d]pyrimidin-7-yl]amino}hexan-1-ol]
14 | 8.17 | 9.33 | CCC[C@@H](CCO)Nc1nc(N)nc2cnn(Cc3cnc(C4CCN(C5CCOCC5)CC4)cc3OC)c12 [Compound 168, (3S)-3-{[5-amino-1-({4-methoxy-6-[1-(oxan-4-yl)piperidin-4-yl]pyridin-3-yl}methyl)-1H-pyrazolo[4,3-d]pyrimidin-7-yl]amino}hexan-1-ol]
15 | 8.32 | 9.68 | CCC[C@@H](CCO)Nc1nc(N)nc2cnn(Cc3cnc(C4CCN(CC(C)(C)O)CC4)cc3OC)c12 [Compound 176, (3S)-3-{[5-amino-1-({6-[1-(2-hydroxy-2-methylpropyl)piperidin-4-yl]-4-methoxypyridin-3-yl}methyl)-1H-pyrazolo[4,3-d]pyrimidin-7-yl]amino}hexan-1-ol]
